Counter-ions that a name gives are not always drawn. Blank lines part the entries; values can stand above or below the compound they belong to.
Columns and labels:
[1] = Solubility in water; assay type: physicochemical; conditions: corresponds to 0.019 mg/ml
[2] = Particle size distribution analysis by laser diffraction (Sympatec HELOS H3973); assay type: physicochemical; conditions: micronized particles
Description: For particle size distribution analysis, the non-active silica particles (which were used in silica hydrogel composite #29HG) were dispersed in ethanol, and the analysis was conducted using a Sympatec HELOS H3973 laser diffraction instrument. The particle size distribution for non-active silica particles is shown in Table 2 (D10, D50 and D90 means that 10%, 50%, and 90% of the particles are equal or smaller than the indicated size)
The particles size distribution analysis for micronized (described in Example 1) Anagrelide HCl particles was also conducted using a Sympatec HELOS H3973 laser diffraction instrument. The particle size was mainly between 1 and 200 micrometers, where D10 was 16.6 micrometers, D50 80.4 micrometers, and D90 155 micrometers.

[3] = In vivo pharmacokinetic experiment, oral and subcutaneous administration; parameters: species or system male SD (Sprague Dawley) rats; conditions: for AUC(0-t) / Cmax / Tmax / half-life: male, Sprague-Dawley, rat, plasma
Description: Silica hydrogel composite #29HG was used as a depot for male SD (Sprague Dawley) rats (5 animals/dosing group) in subcutaneous (SC+a letter A-E referring to different groups) administration of Anagrelide, and for oral administration (PO). The oral dose was prepared by adding 18.00 mg of Anagrelide hydrochloride into […] of 10 w-% ethanol with vortexing and sonication to obtain a suspension with concentration of 0.5 mg/ml of Anagrelide hydrochloride. The oral dose (5 mg/kg) was provided only in 12 h study, and it was freshly made just prior to dosing. Both 12 hour and 10 d pharmacokinetic experiments were conducted for the silica hydrogel composite for 2 different anagrelide hydrochloride doses (17.5 mg/kg and 35 mg/kg), and 28 d experiment only for the dose of 35 mg/kg.
The bioanalysis was conducted by using LC-MS/MS. The desired serial concentrations of working solutions were achieved by diluting stock solution of analyte with 50% acetonitrile in water solution. 5 μL of working solutions (2, 5, 10, 20, 50, 100, 500, 1000, 5000, 10000 ng/mL) were added to 50 μL of the male blank SD Rat plasma to achieve calibration standards of 0.2-1000 ng/mL (0.2, 0.5, 1, 2, 5, 10, 50, 100, 500, 1000 ng/mL) in a total volume of 55 μL. Four quality control samples at 0.5 ng/mL, 1 ng/mL, 50 ng/mL and 800 ng/mL for plasma were prepared independently of those used for the calibration curves. These QC samples were prepared on the day of analysis in the same way as calibration standards. 55 μL of standards, 55 μL of QC samples and 55 μL of unknown samples (50 μL of plasma with 5 μL of blank solution) were added to 200 μL of acetonitrile containing IS mixture for precipitating protein respectively. Then the samples were vortexed for 30 s. After centrifugation at 4 degree Celsius, 4700 rpm for 15 min, the supernatant was diluted 3 times with water, and 10 μL of diluted supernatant was injected into the LC-MS/MS system for quantitative analysis. The mean plasma concentrations of Anagrelide Hydrochloride for 12 h experiment are shown in FIG. 4, and corresponding results for 10 d experiment in FIG. 5, and for 28 d experiment in FIG. 6.

[4] = cited from earlier work
[5] = po, 5 mg/kg, oral suspension 5 mg/kg, 12 h experiment
[6] = sc, 17.5 mg/kg, SCA, subcutaneous silica hydrogel composite #29HG depot 17.5 mg/kg, 12 h experiment
[7] = sc, 17.5 mg/kg, SCB, subcutaneous silica hydrogel composite #29HG depot 17.5 mg/kg, 10 d experiment
[8] = sc, 35 mg/kg, SCC, subcutaneous silica hydrogel composite #29HG depot 35 mg/kg, 12 h experiment
[9] = sc, 35 mg/kg, SCD, subcutaneous silica hydrogel composite #29HG depot 35 mg/kg, 10 d experiment
[10] = sc, 35 mg/kg, SCE, subcutaneous silica hydrogel composite #29HG depot 35 mg/kg, 28 d experiment

solubility in water as weight-% [1]: 0.0019 weight-% | D10 [2]: 16.6 micrometers | D50 [2]: 80.4 micrometers | D90 [2]: 155 micrometers | AUClast/D ([3]; PO, oral suspension 5 mg/kg, 12 h experiment): 64 ± 47 ng·h/mL per mg/kg | AUClast/D ([3]; SCA, subcutaneous silica hydrogel composite #29HG depot 17.5 mg/kg, 12 h experiment): 1.67 ± 0.4 ng·h/mL per mg/kg | AUClast/D ([3]; SCB, subcutaneous silica hydrogel composite #29HG depot 17.5 mg/kg, 10 d experiment): 29.8 ± 12.5 ng·h/mL per mg/kg | AUClast/D ([3]; SCC, subcutaneous silica hydrogel composite #29HG depot 35 mg/kg, 12 h experiment): 0.99 ± 0.3 ng·h/mL per mg/kg | AUClast/D ([3]; SCD, subcutaneous silica hydrogel composite #29HG depot 35 mg/kg, 10 d experiment): 21.4 ± 9.1 ng·h/mL per mg/kg | AUC(0-t) [3, 5]: 320 ± 235 ng·h/mL | Cmax [3, 5]: 62 ± 47 ng/mL | Tmax [3, 5]: 3 ± 2 h | half-life [3, 5]: 1.3 ± 0.27 h | AUC(0-t) [3, 6]: 29.2 ± 7.1 ng·h/mL | Cmax [3, 6]: 4.55 ± 1.41 ng/mL | Tmax [3, 6]: 1.1 ± 0.55 h | half-life [3, 6]: 4.92 ± 0.85 h | AUC(0-t) [3, 7]: 521 ± 218 ng·h/mL | Cmax [3, 7]: 3.58 ± 1.51 ng/mL | Tmax [3, 7]: 96 ± 102 h | AUC(0-t) [3, 8]: 34.5 ± 10.6 ng·h/mL | Cmax [3, 8]: 6.3 ± 4.2 ng/mL | Tmax [3, 8]: 0.8 ± 0.27 h | half-life [3, 8]: 7.03 ± 1.04 h | AUC(0-t) [3, 9]: 749 ± 320 ng·h/mL | Cmax [3, 9]: 5.29 ± 2.28 ng/mL | Tmax [3, 9]: 154 ± 79 h | AUC(0-t) [3, 10]: 1600 ng·h/mL | Tmax [3, 10]: 188 h | half-life [3, 10]: 167 h
Structure (SMILES): O=C1CN2Cc3c(ccc(Cl)c3Cl)N=C2N1 [Anagrelide HCl, Anagrelide hydrochloride]
clinical symptoms ([3]; SD rats, entire experiment (PO 5 mg/kg; SC #29HG depot 17.5 and 35 mg/kg)): No abnormal clinical symptoms were observed | release behaviour from plasma concentration results ([3]; delivered as solid particles in silica hydrogel composite, SC, SD rats): sustained and controlled release is achieved | solubility in water [4]: 19 µg/mL

Structure (SMILES): O=C1CN2Cc3c(ccc(Cl)c3Cl)N=C2N1 [Anagrelide]
solubility of base form compared with Anagrelide HCl ([4]; water): even lower solubility than Anagrelide HCl

— US20230248647A1, “SILICA HYDROGEL COMPOSITE AND ITS USE” (DelSiTech Oy, priority 2020, published 2023)
